According to US8846125B2, “Enaminocarbonyl compounds and their use” (Instytut Chemii Organicznej, Polska Akademia Nauk, priority 2009, dated 2014):

What was measured:
Format in all cases: in vivo, healthy men
[1] = test system: perception of sweetness (panel members); assay: Comparative analysis of the intensity of the sweet taste against a 10% saccharose reference solution; conditions: for Results of sweetness comparisons against the reference solution [+] (sample sweeter) / Results of sweetness comparisons against the reference solution [=] (unable to tell) / Results of sweetness comparisons against the reference solution [−] (sample less sweet): count out of 10 comparative tests, reference 10% saccharose in 20% ethanol
From the text: During the next stage, we performed a comparative analysis of the intensity of the sweet taste. In the study we used the compound of example 1 (3-benzyl-aminomethylenedihydrofuran-2-one). The subject of the study consisted of samples of the initial 4000 ppm solution, and samples of diluted solutions containing 2000, 1000, 800 and 500 ppm of the compound of example 1.
The reference solution comprised 10% saccharose (wt./wt.) in 20% ethanol, containing 100000 ppm (wt./wt.) saccharose.
The study operator gave the panel members samples of the compound with the formula 1 marked with randomly generated 3-digit numbers, and also samples of the reference solution of saccharose in order to compare the perception of sweetness to the saccharose reference solution. Each of the 5 panel members received for comparison random samples of the solutions of the compound of example 1, twice, containing 4000 ppm, 2000 ppm, 1000 ppm, 800 ppm and 500 ppm of the compound. Each concentration was thus examined in 10 comparative tests.
The task for each panel member was to determine whether a given sample is less or more sweet than the reference solution. Each of the panel members completed a form according to the following rules: if a sample was sweeter, then he placed a plus sign [+] beside the symbol of the sample, if it was less sweet, a minus sign [−], and if in doubt, an equal sign [=]. Similar to the qualitative analysis, each of the panel members received a sample of 10 ml of a solution in a small vial, gently rinsed his mouth out with it for 20 seconds and then spat out the tested solution. Next, he carefully rinsed out his mouth with a large volume of distilled water (at least 150 ml) for at least 30 seconds. When the panel member felt that he no longer perceived any taste, he could proceed with the evaluation of the next solution.

[2] = test system: perception of sweet taste (panel members); assay: Qualitative evaluation of the perception of sweet taste by a 5-volunteer panel; design: key to Perception of sweet taste: +: perception of sweet taste; ++: very strong perception of sweet taste; −: absence of sweet taste; conditions: 4000 ppm solution in 20% ethanol, 5 panel members; for Perception of sweet taste: 10 ml mouth rinse 20 s
Experimental: Compounds according to the present invention destined for testing of their taste perception modifying properties were re-crystallized from ethanol or an ethanol-water mixture.
Qualitative evaluation of the perception of sweet taste; the examined substances were dissolved in a 20% ethanol and water mixture (vol./vol.).
Three initial solutions were formulated, containing: • the compound of example 1 (3-benzylaminomethylenedihydrofuran-2-one, 4000 ppm solution-400 mg in 100 ml 20% ethanol), • compound of example 2 ((R)-3-(1-phenylethylamino)methylenedihydrofuran-2-one, 4000 ppm solution-400 mg in 100 ml 20% ethanol), • compound of example 6 (2-benzylaminomethylenecyclopentanone, 4000 ppm solution−400 mg in 100 ml 20% ethanol).
Solutions of lower concentrations were obtained through dilution, to appropriate proportions, of the initial solutions with a 20% mixture of ethanol and distilled water (vol./vol.).
(§1) Evaluation of the degree of sweetness of the compounds according to the present invention was performed using a 5-volunteer panel—healthy men—henceforth referred to as panel members. All panel members were informed of the need to maintain safety procedures during the evaluation of the compounds according to the present invention, In particular, of the need to avoid swallowing the tested solutions. Each of the panel members received a 10 ml sample of a solution in a small vial and rinsed out their mouth with the entire contents of the vial for 20 seconds and then spit out the tested solution. Next, they carefully rinsed out their mouth with a large volume of distilled water (at least 150 ml) for at least 30 seconds. When the panel member felt that they no longer perceived any taste, they could proceed with the evaluation of the next solution.
During the first stage, the panel members qualitatively examined the taste of the three initial solutions containing 4000 ppm of a compound according to the present invention. The panel members all agreed that the solutions have an intensive sweet taste.
An additional qualitative evaluation was made of compounds according to the present invention from examples 4, 7 and 9, and compounds from comparative examples 1-19, in the form of 4000 ppm solutions. […] Solutions of compounds from the comparative examples lack a sweet taste.

[3] = test system: sweet taste of sweet-tasting products (panel members); assay: Inhibition of sweet taste of sweet products, commercial sweeteners and sweet compounds by the compound of example 3; design: key to Perceived sweet taste: ++: Strong perception of sweet taste; key to Perception of sweet taste following the addition of the compound of example 3: <<+: Weak or absent perception of sweet taste; conditions: for Perceived sweet taste: without compound of example 3
Experimental: Evaluation of the degree of sweetness of the compounds according to the present invention was performed using a 5-volunteer panel-healthy men-henceforth referred to as panel members. All panel members were informed of the need to maintain safety procedures during the evaluation of the compounds according to the present invention, In particular, of the need to avoid swallowing the tested solutions. Each of the panel members received a 10 ml sample of a solution in a small vial and rinsed out their mouth with the entire contents of the vial for 20 seconds and then spit out the tested solution. Next, they carefully rinsed out their mouth with a large volume of distilled water (at least 150 ml) for at least 30 seconds. When the panel member felt that they no longer perceived any taste, they could proceed with the evaluation of the next solution. Solutions of sweet products were prepared (saccharose, glucose, bee honey, glycine), by dissolving 100 mg of the product in 5 ml 20% aqueous ethanol. Two solutions are prepared of each product. One of these solutions is supplemented with a compound according to example 3 of the present invention (100 mg). Next, the taste of both solutions is compared for evaluating the qualitative perception of the taste of both solutions, proceeding according to the procedure established above, for the qualitative evaluation of the perception of sweet taste. The study results are compiled in Table 4. Solutions of commercially available sweeteners were prepared (“Sweet Top®” containing aspartame and […]®” containing sorbitol, sodium cyclamate and sodium saccharinate), by dissolving 5 mg of the sweetener in 20 ml of 20% aqueous ethanol. Each sweetener solution was made up twice. One of these solutions was supplemented with a compound according to example 3 of the present invention (5 mg). Next, the taste of both solutions was evaluated proceeding according to the procedure shown above, for the qualitative evaluation of the perception of sweet taste. The study results are compiled in Table 4. Solutions of compounds with a sweet taste according to the present invention were prepared (compounds of examples 1, 2 and 6), dissolving 5 mg of the compound according to the present invention in 20 ml 20% of aqueous ethanol. Two solutions were made of each compound of examples 1, 2 and 6. One of these solutions was supplemented with the compound of example 3 according to the present invention (5 mg). Next, the taste of both solutions was evaluated proceeding according to the above procedure for the qualitative evaluation of the perception of sweet taste. The study results are compiled in Table 4.

[4] = test system: sweet taste of saccharose (panel members); assay: Inhibition of sweet taste of a saccharose solution, qualitative panel evaluation; design: key to Inhibition of sweet taste: ++: complete inhibition of sweet taste; −: lack of inhibition of sweet taste; conditions: 100 mg saccharose in 5 ml 20% aqueous ethanol plus 100 mg compound, vs saccharose solution without compound
Experimental: as §1
The inhibition of sweet taste of sweet substances or mixtures thereof by inhibitors of sweet taste according to the present invention was examine qualitatively according to the following procedure. Two samples of saccharose, each of 100 mg, are dissolved in 5 ml 20% of aqueous ethanol, and then one solution is supplemented with 100 mg of a compound of an example according to the present invention (compounds from examples 3, 5, and 8). Next, the taste of both solutions is evaluated using the procedure presented above, for the qualitative perception of a sweet taste. […] The study was also performed on compounds from comparative examples 1-19.

[5] = approximate interpretation of the dilution series, comparison with a 10% saccharose solution in 20% ethanol
[6] = 5 mg in 20 ml 20% aqueous ethanol plus 5 mg compound of example 3
[7] = 5 mg in 20 ml 20% aqueous ethanol
[8] = 100 mg product in 5 ml 20% aqueous ethanol plus 100 mg compound of example 3
[9] = 100 mg product in 5 ml 20% aqueous ethanol

Question: What does the source list for `O=C1OCCC1=CNCc1ccccc1` [Example 1, 3-Benzylaminomethylenedihydrofuran-2-one]?
Answer: Results of sweetness comparisons against the reference solution [+] (sample sweeter) ([1]; 500 ppm in 20% ethanol): 2; Results of sweetness comparisons against the reference solution [=] (unable to tell) ([1]; 500 ppm in 20% ethanol): 2; Results of sweetness comparisons against the reference solution [−] (sample less sweet) ([1]; 500 ppm in 20% ethanol): 6; Results of sweetness comparisons against the reference solution [+] (sample sweeter) ([1]; 800 ppm in 20% ethanol): 2; Results of sweetness comparisons against the reference solution [=] (unable to tell) ([1]; 800 ppm in 20% ethanol): 6; Results of sweetness comparisons against the reference solution [−] (sample less sweet) ([1]; 800 ppm in 20% ethanol): 2; Results of sweetness comparisons against the reference solution [+] (sample sweeter) ([1]; 1000 ppm in 20% ethanol): 8; Results of sweetness comparisons against the reference solution [−] (sample less sweet) ([1]; 1000 ppm in 20% ethanol): 2; Results of sweetness comparisons against the reference solution [+] (sample sweeter) ([1]; 2000 ppm in 20% ethanol): 10; Results of sweetness comparisons against the reference solution [+] (sample sweeter) ([1]; 4000 ppm in 20% ethanol): 10; Times sweeter than saccharose [1, 5]: 200-250 times; Times sweeter than saccharose ([1]; concluded from the initial 4000 ppm solution vs 10% saccharose reference): at least 50 times; Sweetness of the initial solution compared with the reference solution (saccharose) ([1]; initial 4000 ppm solution vs 10% saccharose (100000 ppm) in 20% ethanol, all panel members): much sweeter than the reference solution; Perception of sweet taste [2]: ++; Perception of sweet taste following the addition of the compound of example 3 [3, 6]: <<+; Sweet taste of the solution with an addition of the compound of example 3 (in words) [3, 6]: only a trace perceived sweet taste; Perceived sweet taste [3, 7]: ++

Question: Which “Times sweeter than saccharose” value [1, 5] does the source give for `C[C@@H](NC=C1CCOC1=O)c1ccccc1` [Example 2, (R)-3-(1-phenylethyl)aminomethylenedihydrofuran-2-one] here?
Answer: The value was 200-250 times.

Question: What about the “Perception of sweet taste” value [2] of the same compound?
Answer: The value was “++”.

Question: And the “Perception of sweet taste following the addition of the compound of example 3” value (“Perception … of example 3” below) [3, 6]?
Answer: Its value is “<<+”.

Question: What about the “Sweet taste of the solution with an addition of the compound of example 3 (in words)” value (“Sweet taste of the solution” below) [3, 6] of the same compound?
Answer: The value was “does not exhibit a sweet taste”.

Question: What about the Perceived sweet taste [3, 7] of the same compound?
Answer: The Perceived sweet taste was “++”.

Question: What does the source list for `C[C@H](NC=C1CCOC1=O)c1ccccc1` [Example 3, (S)-3-(1-phenylethyl)aminomethylenedihydrofuran-2-one]?
Answer: Inhibition of sweet taste [4]: ++; Taste of the saccharose solution with the compound [4]: practically not sweet at all

Question: How did the “Taste of the solution as described by the panel members” value [2] turn out when `CC[C@@H](NC=C1CCOC1=O)c1ccccc1` [Example 4, (R)-3-(1-phenylpropylo)aminomethylenedihydrofuran-2-one] was run?
Answer: The value was “intensively sweet taste”.

Question: What about the “Perception of sweet taste” value [2] of the same compound?
Answer: Its value is “++”.

Question: For `CC[C@H](NC=C1CCOC1=O)c1ccccc1` [Example 5, (S)-3-(1-phenylpropylo)aminomethylenedihydrofuran-2-one], which “Inhibition of sweet taste” value [4] is on record?
Answer: Its value is “++”.

Question: And the “Taste of the saccharose solution with the compound” value [4]?
Answer: Its value is “practically not sweet at all”.

Question: `O=C1CCCC1=CNCc1ccccc1` [Example 6, 2-Benzylaminomethylenecyclopentanone] was tested. Which “Times sweeter than saccharose” value [1, 5] did it give?
Answer: The value was “at least 250 times”.

Question: And the “Perception of sweet taste” value [2]?
Answer: Its value is “++”.

Question: What about the “Perception … of example 3” value [3, 6] of the same compound?
Answer: Its value is “<<+”.

Question: And the “Sweet taste of the solution” value [3, 6]?
Answer: Its value is “only a trace perceived sweet taste”.

Question: And the Perceived sweet taste [3, 7]?
Answer: The Perceived sweet taste was “++”.

Question: For `C[C@@H](NC=C1CCCC1=O)c1ccccc1` [Example 7, (R)-2-(1-phenylethyl)aminomethylenecyclopentanone], which “Taste of the solution as described by the panel members” value [2] is on record?
Answer: The value was “intensively sweet taste”.

Question: And the “Perception of sweet taste” value [2]?
Answer: Its value is “++”.

Question: Which results are given for `C[C@H](NC=C1CCCC1=O)c1ccccc1` [Example 8, (S)-2-(1-phenylethyl)aminomethylenecyclopentanone]?
Answer: Inhibition of sweet taste [4]: ++; Taste of the saccharose solution with the compound [4]: practically not sweet at all

Question: What does the source list for `O=C1OCCC1=CNCc1cccnc1` [Example 9, 3-(3-pirydylomethyl)aminomethylenedihydrofuran-2-one]?
Answer: Bitter side taste [2]: somewhat bitter; Taste of the solution as described by the panel members [2]: significantly less sweet than the solution of 3-benzylaminomethylenedihydrofuran-2-one; Bitter side taste ([2]; listed as example 9): admixture of a bitter taste; Perception of sweet taste [2]: +

Question: With `NCC(=O)O` [glycine, reference compound] as the compound, how does the “Perception … of example 3” value [3, 8] read?
Answer: Its value is “<<+”.

Question: And the “Sweet taste of the solution” value [3, 8]?
Answer: Its value is “do not elicit the perception of a sweet taste, not even a weak one”.

Question: What about the Perceived sweet taste [3, 9] of the same compound?
Answer: The Perceived sweet taste was “++”.

Question: `OC[C@H]1O[C@@](CO)(O[C@H]2O[C@H](CO)[C@@H](O)[C@H](O)[C@H]2O)[C@@H](O)[C@@H]1O` [saccharose, reference compound] was tested. Which “Perception … of example 3” value [3, 8] did it give?
Answer: Its value is “<<+”.

Question: What about the “Sweet taste of the solution” value [3, 8] of the same compound?
Answer: Its value is “do not elicit the perception of a sweet taste, not even a weak one”.

Question: And the Perceived sweet taste [3, 9]?
Answer: The Perceived sweet taste was “++”.
